What was measured:
[1] = target: T1, h-GABA-A α5β3γ2 (Homo sapiens, UniProt P18507+P31644); test: Two-electrode voltage clamp electrophysiology in Xenopus laevis oocytes expressing GABAA receptors, modulation of GABA EC20 current; format: cell-based; design: host or cells: Xenopus laevis oocytes micro-injected with RNA transcripts of the subunits; details: Table 1; for Efficacy (GABA) %: % modulation of GABA EC20 = 100*(Fold increase-1); for Fold increase h-GABA-A α5β3γ2 oocyte: test compound at approx. 30 fold its Ki, GABA at EC20
Procedure, shortened: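 Modulation is reported as % of the GABA EC20 current, calculated as 100*(Fold increase−1) from the peak ratio between a second GABA response carrying compound (applied at roughly 30-fold Ki) and a preceding control response. Oocytes expressing human α5β3γ2 were clamped at −80 mV at room temperature, 3–5 days after injection.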

[2] = target: T1, h-GABA-A α5β3γ2; test: [3H]flumazenil competition binding assay, membranes of HEK293 cells expressing GABAA receptors; details: displacement of [3H]-Flumazenil 0.5 nM, HEK293 cells expressing human receptors, mean of two determinations; Table 1
Procedure, shortened: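 Receptor source: human α5β3γ2 transiently transfected into HEK293 cells, membranes in pH 7.5 Krebs-tris. Filtration through GF/C, then scintillation counting.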

Row | Compound | Efficacy (GABA) % [1] [%] | Fold increase h-GABA-A α5β3γ2 oocyte [1] | Ki [2] [nM]
1 | Cc1ccc(-c2noc(C)c2Cn2ncc(-c3cnn(CC4CC4)c3)cc2=O)cn1 [Example 157, 5-(1-(cyclopropylmethyl)-1H-pyrazol-4-yl)-2-((5-methyl-3-(6-methylpyridin-3-yl)isoxazol-4-yl)methyl)pyridazin-3(2H)-one] | 86 | 1.86 | 22.7
2 | CO[C@H]1CN(c2cnn(Cc3c(-c4ccc(C)nc4)noc3C)c(=O)c2)[C@H]1C [Example 197, 5-[(2S,3S)-3-methoxy-2-methyl-azetidin-1-yl]-2-[[5-methyl-3-(6-methyl-3-pyridyl)isoxazol-4-yl]methyl]pyridazin-3-one] | 131 | 2.31 | 2
3 | Cc1ccc(-c2noc(C)c2Cn2ncc(N3CCN4C(=O)OCC4C3)cc2=O)cn1 (stereo not drawn) [Example 44, 7-(1-((5-methyl-3-(6-methylpyridin-3-yl)isoxazol-4-yl)methyl)-6-oxo-1,6-dihydropyridazin-4-yl)tetrahydro-1H-oxazolo[3,4-a]pyrazin-3(5H)-one] | 181 | 2.81 | 9.5
4 | Cc1ccc(-c2noc(C)c2Cn2ncc(N3CCN(C4CC4)[C@@H](C)C3)cc2=O)cn1 [Example 60, 5-[(3S)-4-cyclopropyl-3-methyl-piperazin-1-yl]-2-[[5-methyl-3-(6-methyl-3-pyridyl)isoxazol-4-yl]methyl]pyridazin-3-one] | 97 | 1.97 | 10.2
5 | Cc1ccc(-c2noc(C)c2Cn2ncc(-c3ccc(C4CC4)nc3)cc2=O)cn1 [Example 173, 5-(6-cyclopropyl-3-pyridyl)-2-[[5-methyl-3-(6-methyl-3-pyridyl)isoxazol-4-yl]methyl]pyridazin-3-one] | 80 | 1.8 | 29.7
6 | Cc1onc(-c2ccc(Cl)nc2)c1Cn1ncc(-c2cnn(C)c2)cc1=O [Example 215, 2-((3-(6-chloropyridin-3-yl)-5-methylisoxazol-4-yl)methyl)-5-(1-methyl-1H-pyrazol-4-yl)pyridazin-3(2H)-one] | 119 | 2.19 | 50
7 | CCCn1cc(-c2cnn(Cc3c(-c4ccc(C)nc4)noc3C)c(=O)c2)cn1 [Example 210, 2-((5-methyl-3-(6-methyl-3-pyridyl)isoxazol-4-yl)methyl)-5-(1-propylpyrazol-4-yl)pyridazin-3-one] | 143 | 2.43 | 26
8 | COc1cc(-c2cnn(Cc3c(-c4ncc(C(F)(F)F)cn4)noc3C)c(=O)c2)ccn1 [Example 228, 5-(2-methoxypyridin-4-yl)-2-((5-methyl-3-(5-(trifluoromethyl)pyrimidin-2-yl)isoxazol-4-yl)methyl)pyridazin-3(2H)-one] | 41 | 1.41 | 3.8
9 | Cc1cc(-c2noc(C)c2Cn2ncc(N3C[C@@H](C)O[C@@H](C)C3)cc2=O)no1 [Example 62, 5-(cis-2,6-dimethylmorpholin-4-yl)-2-[[5-methyl-3-(5-methylisoxazol-3-yl)isoxazol-4-yl]methyl]pyridazin-3-one] | 88 | 1.88 | 0.6
10 | Cc1ccc(-c2noc(C)c2Cn2ncc(N3CC4(CCCO4)C3)cc2=O)cn1 [Example 95, 2-[[5-methyl-3-(6-methyl-3-pyridyl)isoxazol-4-yl]methyl]-5-(5-oxa-2-azaspiro[3.4]octan-2-yl)pyridazin-3-one] | 115 | 2.15 | 30.8
11 | CO[C@@H]1COC2(C1)CN(c1cnn(Cc3c(-c4ccc(C)nc4)noc3C)c(=O)c1)C2 [Example 133, 5-[(7S)-7-methoxy-5-oxa-2-azaspiro[3.4]octan-2-yl]-2-[[5-methyl-3-(6-methyl-3-pyridyl)isoxazol-4-yl]methyl]pyridazin-3-one] | 172 | 2.72 | 81.2
12 | Cc1ccc(-c2noc(C)c2Cn2ncc(N3CCC(n4c(C)nnc4C)CC3)cc2=O)cn1 [Example 54, 5-[4-(3,5-dimethyl-1,2,4-triazol-4-yl)-1-piperidyl]-2-[[5-methyl-3-(6-methyl-3-pyridyl)isoxazol-4-yl]methyl]pyridazin-3-one] | 175 | 2.75 | 10.8
13 | Cc1ccc(-c2noc(C)c2Cn2ncc(N(C)C3CC3)cc2=O)cn1 [Example 64, 5-(cyclopropyl(methyl)amino)-2-((5-methyl-3-(6-methylpyridin-3-yl)isoxazol-4-yl)methyl)pyridazin-3(2H)-one] | 108 | 2.08 | 1.8
14 | COc1ncc(-c2cnn(Cc3c(-c4ccc(C)nc4)noc3C)c(=O)c2)cc1F [Example 183, 5-(5-fluoro-6-methoxypyridin-3-yl)-2-((5-methyl-3-(6-methylpyridin-3-yl)isoxazol-4-yl)methyl)pyridazin-3(2H)-one] | 137 | 2.37 | 28.7
15 | Cc1ccc(-c2noc(C)c2Cn2ncc(N3CC4(CCC(C)(C)O4)C3)cc2=O)nn1 [Example 310, 5-(6,6-dimethyl-5-oxa-2-azaspiro[3.4]octan-2-yl)-2-[[5-methyl-3-(6-methylpyridazin-3-yl)isoxazol-4-yl]methyl]pyridazin-3-one] | 105 | 2.05 | 14.2
16 | Cc1ccc(-c2noc(C)c2Cn2ncc(N3CC4(C[C@@H](OC(F)F)CO4)C3)cc2=O)nn1 [Example 242, 5-[(7R)-7-(difluoromethoxy)-5-oxa-2-azaspiro[3.4]octan-2-yl]-2-[[5-methyl-3-(6-methylpyridazin-3-yl)isoxazol-4-yl]methyl]pyridazin-3-one] | 80 | 1.8 | 3
17 | Cc1onc(-c2ncc(C(F)(F)F)cn2)c1Cn1ncc(N2CC3(C2)CC(F)(F)CO3)cc1=O [Example 250, 5-(7,7-difluoro-5-oxa-2-azaspiro[3.4]octan-2-yl)-2-((5-methyl-3-(5-(trifluoromethyl)pyrimidin-2-yl)isoxazol-4-yl)methyl)pyridazin-3(2H)-one] | 46 | 1.46 | 3.3
18 | Cc1onc(-c2ncc(C(F)(F)F)cn2)c1Cn1ncc(N2CC3(CCC(F)CO3)C2)cc1=O (single isomer, unassigned) [Example 332] | 65 | 1.65 | 2.6
19 | Cc1onc(-c2ccc(Cl)nc2)c1Cn1ncc(N2CCN(c3cncnc3)CC2)cc1=O [Example 277, 2-((3-(6-chloropyridin-3-yl)-5-methylisoxazol-4-yl)methyl)-5-(4-(pyrimidin-5-yl)piperazin-1-yl)pyridazin-3(2H)-one] | 131 | 2.31 | 3.4
20 | Cc1ccc(-c2noc(C)c2Cn2ncc(N3CC[C@@H](OC(C)(C)C)C3)cc2=O)cn1 [Example 90, 5-[(3R)-3-tert-butoxypyrrolidin-1-yl]-2-[[5-methyl-3-(6-methyl-3-pyridyl)isoxazol-4-yl]methyl]pyridazin-3-one] | 109 | 2.09 | 24.8
21 | Cc1ccc(-c2noc(C)c2Cn2ncc(N3CC4(CC(F)CCO4)C3)cc2=O)cn1 (single isomer, unassigned) [Example 273] | 126 | 2.26 | 30
22 | Cc1ccc(-c2noc(C)c2Cn2ncc(N3CCC4(CC3)COC4)cc2=O)cn1 [Example 46, 2-[[5-methyl-3-(6-methyl-3-pyridyl)isoxazol-4-yl]methyl]-5-(2-oxa-7-azaspiro[3.5]nonan-7-yl)pyridazin-3-one] | 107 | 2.07 | 15.2
23 | Cc1ccc(-c2noc(C)c2Cn2ncc(N3CCN[C@@H](C)C3)cc2=O)cn1 [Example 51, 2-[[5-methyl-3-(6-methyl-3-pyridyl)isoxazol-4-yl]methyl]-5-[(3S)-3-methylpiperazin-1-yl]pyridazin-3-one] | 182 | 2.82 | 3.3
